This test concerns U2OS_Bim cells. The test is described as follows: Apoptosis inhibition assay (Bim-induced apoptosis, cell viability by ATP level). In kind it is cell-based. To be noted: U2OS_Bim cells; means of duplicates; numbering of Tables 4a/4b; read-out: EC50. The gist of the method: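 Apoptosis was triggered by doxycycline (0.1 μg/mL) induction of Bim, one hour after compound addition to U2OS_Bim cells. Survival was measured after 24 h from cellular ATP (CellTiter-Glo), relative to DMSO, with zVAD at 20 μM as rescue control. Data are duplicate means, some estimated from preliminary results.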
Regarding `COc1ccc(Cn2cc(-c3cc(C(F)(F)F)nc(S(=O)(=O)CCCC(=O)N4CCCCC4)n3)ccc2=O)cc1OC` [Compound 155, 1-(3,4-dimethoxybenzyl)-5-(2-((4-oxo-4-(piperidin-1-yl)butyl)sulfonyl)-6-(trifluoromethyl)pyrimidin-4-yl)pyridin-2 (1H)-one], the concentration for a half-maximal effect (EC50) was in the range of 1 to 1000 nM.

Take `COc1ccc(Cn2cc(-c3cc(C(F)(F)F)nc(S(=O)(=O)CCCC(=O)N4CCOCC4)n3)ccc2=O)cc1OC` [Compound 156, 1-(3,4-dimethoxybenzyl)-5-(2-((4-morpholino-4-oxobutyl)sulfonyl)-6-(trifluoromethyl)pyrimidin-4-yl)pyridin-2 (1H)-one]: the concentration giving a half-maximal response (EC50) fell in the range of 1 to 1000 nM.

On to `COc1cc(Cl)c(Cn2cc(-c3cc(C(F)(F)F)nc(S(=O)(=O)CCCC(=O)N4CCOCC4)n3)ccc2=O)cc1OC` [Compound 157, 1-(2-chloro-4,5-dimethoxybenzyl)-5-(2-((4-morpholino-4-oxobutyl)sulfonyl)-6-(trifluoromethyl)pyrimidin-4-yl)pyridin-2 (1H)-one], for which the EC50 fell in the range of 1 to 1000 nM.

Take `COc1ccc(Cn2cc(-c3cc(C(F)(F)F)nc(S(=O)(=O)CCCC(N)=O)n3)ccc2=O)cc1OC` [Compound 158, 4-((4-(1-(3,4-dimethoxybenzyl)-6-oxo-1,6-dihydropyridin-3-yl)-6-(trifluoromethyl)pyrimidin-2-yl)sulfonyl)butanamide]: the EC50 was less than 100000 nM.

For the compound `COc1ccc(Cn2cc(-c3cc(C(F)(F)F)nc([S+]([O-])CCCC(N)=O)n3)ccc2=O)cc1OC` (stereo not drawn) [Compound 159, 4-((4-(1-(3,4-dimethoxybenzyl)-6-oxo-1,6-dihydropyridin-3-yl)-6-(trifluoromethyl)pyrimidin-2-yl)sulfinyl)butanamide], the half-maximal effective concentration (EC50) is less than 100000 nM.

In the case of `COc1ccc(Cn2cc(-c3cc(C(F)F)nc(S(C)(=O)=O)n3)ccc2=O)cc1OC` [Compound 160, 5-(6-(difluoromethyl)-2-(methylsulfonyl)pyrimidin-4-yl)-1-(3,4-dimethoxybenzyl)pyridin-2 (1H)-one], the EC50 lay within 1 to 1000 nM.

As for `COc1ccc(Cn2cc(-c3cc(CF)nc(S(C)(=O)=O)n3)ccc2=O)cc1OC` [Compound 161, 5-(6-(fluoromethyl)-2-(methylsulfonyl)pyrimidin-4-yl)-1-(3,4-dimethoxybenzyl)pyridin-2 (1H)-one], the EC50 was 1 to 1000 nM.

As to `COc1ccc(Cn2cc(-c3nc(S(C)(=O)=O)nc(C(F)(F)F)c3Cl)ccc2=O)cc1OC` [Compound 162, 5-(5-chloro-2-(methylsulfonyl)-6-(trifluoromethyl)pyrimidin-4-yl)-1-(3,4-dimethoxybenzyl)pyridin-2 (1H)-one], the concentration giving a half-maximal response (EC50) fell in the range of 1 to 1000 nM.

For the compound `COc1ccc(Cn2cc(-c3cc(C(C)=O)nc(S(C)(=O)=O)n3)ccc2=O)cc1OC` [Compound 163, 5-(6-acetyl-2-(methylsulfonyl)pyrimidin-4-yl)-1-(3,4-dimethoxybenzyl)pyridin-2 (1H)-one], the 50% effective concentration (EC50) lay in the range of 1 to 1000 nM.

On to `COc1ccc(Cn2cc(-c3cc(C(C)(F)F)nc(S(C)(=O)=O)n3)ccc2=O)cc1OC` [Compound 164, 5-(6-(1,1-difluoroethyl)-2-(methylsulfonyl)pyrimidin-4-yl)-1-(3,4-dimethoxybenzyl)pyridin-2 (1H)-one], for which the concentration giving a half-maximal response (EC50) was 1 to 1000 nM.

In the case of `COc1ccc(Cn2cc(-c3cc(C(F)F)nc(S(C)(=O)=O)n3)cc(F)c2=O)cc1OC` [Compound 165, 5-(6-(difluoromethyl)-2-(methylsulfonyl)pyrimidin-4-yl)-1-(3,4-dimethoxybenzyl)-3-fluoropyridin-2 (1H)-one], the EC50 fell in the range of 1 to 1000 nM.

In the case of `COc1ccc(Cn2cc(-c3cc(C)nc(S(=O)(=O)CC(F)(F)F)n3)ccc2=O)cc1OC` [Compound 166, 1-(3,4-dimethoxybenzyl)-5-(6-methyl-2-((2,2,2-trifluoroethyl)sulfonyl)pyrimidin-4-yl)pyridin-2 (1H)-one], the 50% effective concentration (EC50) is 1000 to 10000 nM.

For the compound `COc1ccc(Cn2cc(-c3cc(C(F)F)nc(S(C)(=O)=O)n3)ccc2=O)cc1F` [Compound 167, 5-(6-(difluoromethyl)-2-(methylsulfonyl)pyrimidin-4-yl)-1-(3-fluoro-4-methoxybenzyl)pyridin-2 (11H)-one], the half-maximal effective concentration (EC50) was 1 to 1000 nM.

`COc1ccc(Cn2cc(-c3cc(C(F)F)nc([S+](C)[O-])n3)ccc2=O)cc1F` (stereo not drawn) [Compound 168, 5-(6-(difluoromethyl)-2-(methylsulfinyl)pyrimidin-4-yl)-1-(3-fluoro-4-methoxybenzyl)pyridin-2 (1H)-one]: the concentration for a half-maximal effect (EC50) fell in the range of 1 to 1000 nM.

As for `COc1ccc(Cn2cc(-c3cc(C(F)F)nc(S(C)(=O)=O)n3)ccc2=O)cc1C(F)(F)F` [Compound 169, 5-(6-(difluoromethyl)-2-(methylsulfonyl)pyrimidin-4-yl)-1-(4-methoxy-3-(trifluoromethyl)benzyl)pyridin-2 (1H)-one], the EC50 is 1 to 1000 nM.

For `COc1ccc(Cn2cc(-c3cc(C(F)F)nc([S+](C)[O-])n3)ccc2=O)cc1C(F)(F)F` (stereo not drawn) [Compound 170, 5-(6-(difluoromethyl)-2-(methylsulfinyl)pyrimidin-4-yl)-1-(4-methoxy-3-(trifluoromethyl)benzyl)pyridin-2 (1H)-one], the EC50 is 1 to 1000 nM.

For the compound `COc1cc(Cn2cc(-c3cc(C(F)F)nc(SC)n3)ccc2=O)cc(F)c1OC` [Compound 171, 5-(6-(difluoromethyl)-2-(methylthio)pyrimidin-4-yl)-1-(3-fluoro-4,5-dimethoxybenzyl)pyridin-2 (1H)-one], the EC50 lay within 1 to 1000 nM.

`COc1cccc(CS(=O)(=O)c2nc(-c3ccc(=O)n(Cc4ccc(OC)c(OC)c4)c3)cc(C(F)F)n2)c1` [Compound 172, 5-(6-(difluoromethyl)-2-((3-methoxybenzyl)sulfonyl)pyrimidin-4-yl)-1-(3,4-dimethoxybenzyl)pyridin-2 (1H)-one]: the 50% effective concentration (EC50) lay in the range of 1 to 1000 nM.

For the compound `COc1cccc(C[S+]([O-])c2nc(-c3ccc(=O)n(Cc4ccc(OC)c(OC)c4)c3)cc(C(F)F)n2)c1` (stereo not drawn) [Compound 173, 5-(6-(difluoromethyl)-2-((3-methoxybenzyl)sulfinyl)pyrimidin-4-yl)-1-(3,4-dimethoxybenzyl)pyridin-2 (1H)-one], the EC50 fell in the range of 1000 to 10000 nM.

As to `COc1cccc(S(=O)(=O)c2nc(-c3ccc(=O)n(Cc4ccc(OC)c(OC)c4)c3)cc(C(F)F)n2)c1` [Compound 174, 5-(6-(difluoromethyl)-2-((3-methoxyphenyl)sulfonyl)pyrimidin-4-yl)-1-(3,4-dimethoxybenzyl)pyridin-2 (1H)-one], the EC50 lay within 1 to 1000 nM.

Consider `COc1cccc([S+]([O-])c2nc(-c3ccc(=O)n(Cc4ccc(OC)c(OC)c4)c3)cc(C(F)F)n2)c1` (stereo not drawn) [Compound 175, 5-(6-(difluoromethyl)-2-((3-methoxyphenyl)sulfinyl)pyrimidin-4-yl)-1-(3,4-dimethoxybenzyl)pyridin-2 (1H)-one], for which the EC50 lay within 1 to 1000 nM.

`CNC(=O)CCCS(=O)(=O)c1nc(-c2ccc(=O)n(Cc3ccc(OC)c(OC)c3)c2)cc(C(F)F)n1` [Compound 176, 4-((4-(difluoromethyl)-6-(1-(3,4-dimethoxybenzyl)-6-oxo-1,6-dihydropyridin-3-yl)pyrimidin-2-yl)sulfonyl)-N-methylbutanamide]: the half-maximal effective concentration (EC50) was in the range of 1000 to 10000 nM.

Take `CNC(=O)CCC[S+]([O-])c1nc(-c2ccc(=O)n(Cc3ccc(OC)c(OC)c3)c2)cc(C(F)F)n1` (stereo not drawn) [Compound 177, 4-((4-(difluoromethyl)-6-(1-(3,4-dimethoxybenzyl)-6-oxo-1,6-dihydropyridin-3-yl)pyrimidin-2-yl)sulfinyl)-N-methylbutanamide]: the EC50 was less than 100000 nM.

`CNS(=O)(=O)CCCS(=O)(=O)c1nc(-c2ccc(=O)n(Cc3ccc(OC)c(OC)c3)c2)cc(C(F)F)n1` [Compound 178, 3-((4-(difluoromethyl)-6-(1-(3,4-dimethoxybenzyl)-6-oxo-1,6-dihydropyridin-3-yl)pyrimidin-2-yl)sulfonyl)-N-methylpropane-1-sulfonamide]: the half-maximal effective concentration (EC50) was in the range of 1 to 1000 nM.

In the case of `CNS(=O)(=O)CCC[S+]([O-])c1nc(-c2ccc(=O)n(Cc3ccc(OC)c(OC)c3)c2)cc(C(F)F)n1` (stereo not drawn) [Compound 179, 3-((4-(difluoromethyl)-6-(1-(3,4-dimethoxybenzyl)-6-oxo-1,6-dihydropyridin-3-yl)pyrimidin-2-yl)sulfinyl)-N-methylpropane-1-sulfonamide], the EC50 is less than 100000 nM.

On to `COc1ccc(Cn2cc(-c3cc(C(F)F)nc(S(=O)(=O)c4cccc(N)c4)n3)ccc2=O)cc1OC` [Compound 180, 5-(2-((3-aminophenyl)sulfonyl)-6-(difluoromethyl)pyrimidin-4-yl)-1-(3,4-dimethoxybenzyl)pyridin-2 (1H)-one], for which the EC50 fell in the range of 1 to 1000 nM.

For the compound `COc1ccc(Cn2cc(-c3cc(C(F)F)nc([S+]([O-])c4cccc(N)c4)n3)ccc2=O)cc1OC` (stereo not drawn) [Compound 181, 5-(2-((3-aminophenyl)sulfinyl)-6-(difluoromethyl)pyrimidin-4-yl)-1-(3,4-dimethoxybenzyl)pyridin-2 (1H)-one], the half-maximal effective concentration (EC50) was 1 to 1000 nM.

Take `COc1ccc(Cn2cc(-c3cc(C(F)F)nc(S(=O)(=O)c4cccc(NC(C)=O)c4)n3)ccc2=O)cc1OC` [Compound 182, N-(3-((4-(difluoromethyl)-6-(1-(3,4-dimethoxybenzyl)-6-oxo-1,6-dihydropyridin-3-yl)pyrimidin-2-yl)sulfonyl)phenyl)acetamide]: the EC50 was in the range of 1 to 1000 nM.

On to `CCCCCCNC(=O)CCCS(=O)(=O)c1nc(-c2ccc(=O)n(Cc3ccc(OC)c(OC)c3)c2)cc(C(F)F)n1` [Compound 183, 4-((4-(difluoromethyl)-6-(1-(3,4-dimethoxybenzyl)-6-oxo-1,6-dihydropyridin-3-yl)pyrimidin-2-yl)sulfonyl)-N-hexylbutanamide], for which the EC50 fell in the range of 1 to 1000 nM.

Regarding `CCCCCCNC(=O)CCC[S+]([O-])c1nc(-c2ccc(=O)n(Cc3ccc(OC)c(OC)c3)c2)cc(C(F)F)n1` (stereo not drawn) [Compound 184, 4-((4-(difluoromethyl)-6-(1-(3,4-dimethoxybenzyl)-6-oxo-1,6-dihydropyridin-3-yl)pyrimidin-2-yl)sulfinyl)-N-hexylbutanamide], the EC50 lay in the range of 1 to 1000 nM.

These data come from patent US11725000B2, “Apoptosis inhibitors” (National Institute of Biological Sciences, Beijing, priority 2017, dated 2023).
